Reference: patent publication US10363239B2, “Method for inhibiting growth of cancer cells” (Pain Therapeutics, Inc., priority 2013, dated 2019)
Read-outs that look alike come from different tables or passages of the source.

Assays:
[1] = tested on: mu opiate receptor (MOR); assay: MOR agonist activity using [35S]GTPγS binding assay in striatal membranes; type: biochemical; settings: for % DAMGO (0.1 μM) / % DAMGO (1 μM): relative to DAMGO; for % DAMGO + BFNA: 1 μM compound + β-FNA, relative to DAMGO + BFNA
Summary of the method: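 Striatal membranes (200 μg) were preincubated 5 min at 30 °C in HEPES pH 7.5 with 100 mM NaCl, 1 mM MgCl2 and 0.5 nM [35S]GTPγS, then 5 min more with 0.1–10 μM compound. Gαo was immunoprecipitated and bound radioactivity counted by scintillation.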

[2] = target: FLNA pentapeptide of SEQ ID NO: 1 (Bn-VAKGL) (Homo sapiens, UniProt P21333); assay: FITC-NLX-based FLNA screening assay (inhibition of FITC-naloxone binding to Bn-VAKGL on streptavidin plates); settings: 10 nM FITC-NLX
[3] = Series C-1, 0.1 μM compound, [35S]GTPγS binding to Gαo, striatal membranes
[4] = Series C-1, 1 μM compound + 1 μM β-FNA
[5] = Series C-1, 1 μM compound, [35S]GTPγS binding to Gαo, striatal membranes
[6] = read-out: Percent Binding Inhibition, FLNA-binding compound 0.01 μM
[7] = read-out: Percent Binding Inhibition, FLNA-binding compound 0.1 μM
[8] = read-out: Percent Binding Inhibition, FLNA-binding compound 1 μM
[9] = Series B, 0.1 μM compound, [35S]GTPγS binding to Gαo, striatal membranes
[10] = Series B, 1 μM compound + 1 μM β-FNA
[11] = Series B, 1 μM compound, [35S]GTPγS binding to Gαo, striatal membranes
[12] = Series C-2, 0.1 μM compound, [35S]GTPγS binding to Gαo, striatal membranes
[13] = Series C-2, 1 μM compound + 1 μM β-FNA
[14] = Series C-2, 1 μM compound, [35S]GTPγS binding to Gαo, striatal membranes
[15] = FLNA-binding compound 0.01 μM, read-out: Percent Binding Inhibition
[16] = FLNA-binding compound 0.1 μM, read-out: Percent Binding Inhibition
[17] = FLNA-binding compound 1 μM, read-out: Percent Binding Inhibition

Structure (SMILES)	% DAMGO (0.1 μM) ([1]; Series C-1, 0.1 μM compound)	Concentration of FLNA-Binding Compound as Agonist 0.1 μM [1, 3]	Concentration of FLNA-Binding Compound as Agonist 1 μM + BFNA [1, 4]	% DAMGO + BFNA ([1]; Series C-1)	% DAMGO (1 μM) ([1]; Series C-1, 1 μM compound)	Concentration of FLNA-Binding Compound as Agonist 1 μM [1, 5]	inhibition at 0.01 µM [2, 6]	inhibition at 0.1 µM [2, 7]	inhibition at 1 µM [2, 8]	% DAMGO (0.1 μM) ([1]; Series C-2, 0.1 μM compound)	MOR agonist activity, percent [35S]GTPγS binding at the stated compound concentration [1, 12]	MOR agonist activity, percent [35S]GTPγS binding at the stated compound concentration [1, 13]	% DAMGO + BFNA ([1]; Series C-2)	% DAMGO (1 μM) ([1]; Series C-2, 1 μM compound)	MOR agonist activity, percent [35S]GTPγS binding at the stated compound concentration [1, 14]	inhibition at 0.01 µM [2, 15]	inhibition at 0.1 µM [2, 16]	inhibition at 1 µM [2, 17]	also measured
COc1ccc(S(=O)(=O)N2CCC3(CC2)OCCN3S(=O)(=O)c2ccc(C(C)=O)cc2)cc1 [Compound C0048]	144.2%	209.1%	89.9%	204.3%	105.3%	245.3%	28.5%	38.9%	45.9%	–	–	–	–	–	–	–	–	–	–
COc1ccc(C(=O)CC2c3c(cc4c(c3OC)OCO4)CC[N+]2(C)C)c(F)c1 (stereo not drawn) [Compound B0027]	–	–	–	–	–	–	40.2%	46.7%	49.8%	–	–	–	–	–	–	–	–	–	% DAMGO (0.1 μM) ([1]; Series B, 0.1 μM compound): 82.3%; MOR agonist activity, percent [35S]GTPγS binding at the stated compound concentration [1, 9]: 140.9%; MOR agonist activity, percent [35S]GTPγS binding at the stated compound concentration [1, 10]: 21.6%; % DAMGO + BFNA ([1]; Series B): 41.5%; % DAMGO (1 μM) ([1]; Series B, 1 μM compound): 100.0%; MOR agonist activity, percent [35S]GTPγS binding at the stated compound concentration [1, 11]: 266.9%
CC(=O)c1ccc(S(=O)(=O)N2CCOC23CCNCC3)cc1 [Compound C0046]	–	–	–	–	–	–	–	–	–	197.4%	286.2%	156.8%	356.4%	211.5%	492.9%	30.8%	35.7%	42.2%	–
C=CCN1CCC2(CC1)OCCN2S(=O)(=O)c1ccc(C(C)=O)cc1 [Compound C0096M]	–	–	–	–	–	–	–	–	–	105.9%	186.4%	127.1%	577.7%	130.0%	328.9%	43%	48.3%	55%	–
CC(=O)c1ccc(S(=O)(=O)N2CCC3(CC2)NC(=O)CO3)cc1 [Compound C0087M]	–	–	–	–	–	–	–	–	–	138.9%	262.8%	142.5%	293.8%	132.8%	329.6%	51.6%	57.9%	61.5%	–
O=S(=O)(c1ccc(Br)cc1Br)N1CCC2(CC1)OCCN2S(=O)(=O)c1ccc(Br)cc1Br [Compound C0070]	96.2%	165.6%	114.2%	331.0%	95.9%	210.8%	–	–	–	–	–	–	–	–	–	42.6%	50.6%	53.6%	–
O=S(=O)(c1ccc(C(F)(F)F)cc1)N1CCC2(CC1)OCCN2S(=O)(=O)c1ccc(C(F)(F)F)cc1 [Compound C0012]	54.8%	96.8%	184.4%	280.7%	86.7%	224.8%	26.3%	39.5%	46.4%	–	–	–	–	–	–	–	–	–	–
COc1cccc(CCC(=O)CC2c3c(cc4c(c3OC)OCO4)CC[N+]2(C)C)c1 (stereo not drawn) [Compound B0034]	–	–	–	–	–	–	49.1%	54.2%	59.1%	–	–	–	–	–	–	–	–	–	% DAMGO (0.1 μM) ([1]; Series B, 0.1 μM compound): 71.6%; MOR agonist activity, percent [35S]GTPγS binding at the stated compound concentration [1, 9]: 122.5%; MOR agonist activity, percent [35S]GTPγS binding at the stated compound concentration [1, 10]: 41.8%; % DAMGO + BFNA ([1]; Series B): 80.2%; % DAMGO (1 μM) ([1]; Series B, 1 μM compound): 88.1%; MOR agonist activity, percent [35S]GTPγS binding at the stated compound concentration [1, 11]: 235.2%
CC(=O)c1ccc(S(=O)(=O)N2CCC3(CC2)OCCN3S(C)(=O)=O)cc1 [Compound C0056]	–	–	–	–	–	–	–	–	–	68.0%	98.6%	86.3%	196.1%	83.0%	193.4%	33.7%	38.9%	41.4%	–
